The results in this text go back to US6838462B2, “Insecticidal azoles” (Bayer CropScience LP, priority 2001, dated 2005).

Holding throughout (assay type): in vivo
One assay relates to Lucilia cuprina larvae. Nature of the assay: Blowfly larvae test / development-inhibitory action. The note with it: 48 h, read-out: % action (mortality of larvae). As to the method:
Blowfly Larvae Test/Development-Inhibitory Action
Test animals: Lucilia cuprina larvae
(§1) Solvent: Dimethyl sulphoxide
(§2) 20 mg of active compound are dissolved in one ml of dimethyl sulphoxide. To prepare a suitable formulation, the solution of active compound is diluted with water to the particular concentration desired.
About 20 Lucilia cuprina larvae are introduced into a test tube which contains about 1 cm^3 of horsemeat and 0.5 ml of the preparation of active compound to be tested. The activity of the preparation of active compound is determined after 48 hours as the mortality of the larvae in %.
The test tubes are then transferred into a beaker whose bottom is covered with sand. After a further 12 days, the test tubes are removed and the pupae and flies are counted. The development-inhibitory action is stated as inhibition of hatching in % (ratio of pupae to flies that have hatched) after 1.5 times the development period of an untreated control.

In assay [1] the test system is Third larval stages of Periplanela americana. Kind of assay: Test with cockroaches - dip treatment. The note with it: dip treatment 60 seconds, after 7 days, 100% = all cockroach larvae killed. On the procedure:
Test with Cockroaches—Dip Treatment
Test animals: Third larval stages of Periplanela americana
as §1, §2
20 ml of this preparation of active compound are pipetted into tubes (Ø 1.5 cm, H 10 cm). 4 cockroach larvae are anaesthetized with CO2 and transferred into a tube (Ø 1.2 cm, H 9 cm) with 3 holes (bottom and 5 cm below the upper rim). […] The tube is dipped into the preparation of active compound for 60 seconds, with all cockroach larvae being wetted completely. After the liquid has run off, the cockroach larvae are transferred to filter discs in PP dishes (Ø 9.7 cm. H 8 cm).
After 2 and 24 hours and after 7 days, the activity of the preparation of active compound is determined. 100% means that all cockroach larvae have been killed; 0% means that none of the cockroach larvae have been killed.

For assay [2], the system named is Adults of Ctenocephalides felis, strain "Georgi". Nature of the assay: Test with cat fleas / oral uptake. The note with it: 24 h, read-out: % action (mortality of larvae). As to the method:
Test with Cat Fleas/Oral Uptake
Test animals: Adults of Crenocephalides felis
Solvent: Dimethyl sulphoxide (DMSO)
To produce a suitable preparation, a suitable solution of active compound is prepared from 20 mg of active compound and 1 ml of DMSO. 20 μl of this formulation are added to 4 ml of citrated cattle blood and stirred.
20 unfed adult fleas (Ctenocephalides felis, strain “Georgi”) are placed into a chamber (Ø 5 cm) whose top and bottom are closed with gauze. A metal cylinder whose underside is covered with parafilm is placed onto the chamber. The cylinder contains the 4 ml of blood/active compound formulation which can be taken up by the fleas through the parafilm membrane. Whereas the blood is warmed to 37° C., the temperature in the area of the flea chambers is adjusted to 25° C. Controls are mixed with the same volume of DMSO, without addition of a compound. The determinations are carried out triplicate.
After 24 h, the mortality in % is determined.
Compounds which effect an at least 25% kill of the fleas within 24 h are judged to be effective.

For `Cc1s/c(=N\C#N)n2c1N(Cc1ccc(Cl)nc1)CC2` [Compound I-1, 1-[6-Chloro-3-pyridylmethyl]-5-cyanoimino-7-methyl-4.5-dihydro[1,3]diazolano-[1,2-c][1,3]thiazoline], the mortality – broadly, the percentage killed – at 100 ppm with Lucilia cuprina larvae was 100%; in assay [2] it was 30%. Besides, in the assay on Lucilia cuprina larvae, the mortality at 300 ppm came to 100%. Besides, the mortality at 1000 ppm in the assay on Lucilia cuprina larvae worked out at 100%. In addition, the “% action (7 d)” value in assay [1] (100 ppm), in assay [1] (300 ppm) and in assay [1] (1000 ppm) was 100% in each case.
